The source of these data is patent US6046212A, “Chalcone derivatives and drugs containing the same” (Kowa Co., Ltd., priority 1996, dated 2000).

As usually defined, the Kd is the constant that tells how readily two partners part at equilibrium. What is called IC50 is the concentration that inhibits the measured activity by half.

Where a name gives a salt, the structure may show the parent alone. Read-outs that look alike come from different tables or passages of the source.

One assay has as its target T1, Leukotriene D4 Receptor (Cavia porcellus, UniProt Q2NNR5).
T1 construct: guinea pig pulmomembranous protein; from tissue; host or cells: guinea pig lung membranes
T1 sequence (Q2NNR5 1-340): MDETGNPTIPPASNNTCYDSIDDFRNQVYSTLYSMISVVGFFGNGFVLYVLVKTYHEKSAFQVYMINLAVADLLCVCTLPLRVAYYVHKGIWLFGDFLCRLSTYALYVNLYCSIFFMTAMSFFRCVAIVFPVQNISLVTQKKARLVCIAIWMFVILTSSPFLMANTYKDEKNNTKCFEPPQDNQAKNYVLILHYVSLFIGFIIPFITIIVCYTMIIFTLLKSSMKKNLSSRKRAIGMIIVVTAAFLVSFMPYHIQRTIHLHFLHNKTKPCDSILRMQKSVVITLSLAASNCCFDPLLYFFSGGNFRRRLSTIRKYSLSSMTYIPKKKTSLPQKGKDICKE
The assay can be described thus: Leukotriene D4 Receptor Binding Inhibition Test. Further details: species or system guinea pig. The note with it: for inhibition at 10 µM: read-out: LTD4 receptor, inhibition rate (%) at a high concentration. Here is the method:
An ice-cold tris hydrochloride/sodium chloride buffer (10 mM/100 mM, pH 7.5) was added to terminate the reaction, followed by immediate filtration through a Wattman CF/C filter. The filter was washed twice with 20 ml aliquots of the ice-cold buffer. The radio-activity of the residue was measured by a liquid scintillation counter. […] Using the Cheng-Prusoff formula, a dissociation constant (KD) was calculated from the IC50.

Assay [1] has as its system isolated guinea pig ileum. The assay can be described thus: Antileukotriene D4 Action (In vitro Test): isotonic contractive response of isolated ileum to leukotriene D4. It counts as cell-based. The note with it: Cavia porcellus, 0.5 h, Krebs buffer 37° C., 30 minutes incubation with test compound, read-out: Anti-LTD4 action (IC50 value). Here is the method:
Antileukotriene D4 Action (In vitro Test)
An isolated guinea pig ileum was cut into about 2 cm lengths. Each ileum piece was suspended in a 20-ml organ bath filled with the Krebs buffer. […] The Krebs buffer was controlled at 37° C., through which a mixed gas (95%O2 -5%CO2) was bubbled. First, leukotriene D4 was added to an organ bath to measure its dose-response. After the ileum piece was washed several times with the buffer, a test compound (will be identified by its example number; this will apply likewise hereinafter) of a predetermined specific concentration was added.

In the next assay the test system is airway constriction. The note with it: cited from earlier work.
Where [2] appears, read: read-out: LTD4 receptor, dissociation constant KD.

Turning to `O=C(O)c1ccc(O)c(C(=O)/C=C/c2ccccc2OCc2ccc3ccccc3n2)c1` [Example 3, 5'-Carboxy-2'-hydroxy-2-[(2-quinolyl)methoxy]chalcone], on Leukotriene D4 Receptor, the inhibition at 10 µM is 18%. As to `O=C(O)c1ccc(O)c(C(=O)/C=C/c2ccc(OCc3ccccc3)cc2)c1` [Example 4, 4-Benzyloxy-5'-carboxy-2'-hydroxychalcone], on Leukotriene D4 Receptor, the inhibition at 10 µM was 23%. For the compound `O=C(O)c1ccc(O)c(C(=O)/C=C/c2ccccc2OCc2ccccc2)c1` [Example 6, 2-Benzyloxy-5'-carboxy-2'-hydroxychalcone], on Leukotriene D4 Receptor, the inhibition at 10 µM was found to be 0%. As for `O=C(O)c1cccc(C(=O)/C=C/c2ccc(OCc3ccc4ccccc4n3)cc2)c1O` [Example 7, 3'-Carboxy-2'-hydroxy-4-[(2-quinolyl)methoxy]chalcone], the dissociation constant (Kd) on Leukotriene D4 Receptor (setting [2]) is 307 nM. As to `O=C(O)c1cc(F)cc(C(=O)/C=C/c2ccc(OCc3ccc4ccccc4n3)cc2)c1O` [Example 8, 3'-Carboxy-5'-fluoro-2'-hydroxy-4-[(2-quinolyl)methoxy]chalcone], the Kd at Leukotriene D4 Receptor (setting [2]) was determined as 396 nM. Regarding `O=C(O)c1cc(Cl)cc(C(=O)/C=C/c2ccc(OCc3ccc4ccccc4n3)cc2)c1O` [Example 9, 3'-Carboxy-5'-chloro-2'-hydroxy-4-[(2-quinolyl)methoxy]chalcone], at Leukotriene D4 Receptor (setting [2]), the Kd came out at 732 nM.

Consider `CCOC(=O)c1ccc(O)c(C(=O)C=Cc2ccc(OCc3ccc4ccccc4n3)cc2)c1` [Example 17], for which the inhibition at 10 µM on Leukotriene D4 Receptor was 16%. Regarding `O=C(/C=C/c1ccc(OCc2ccc3ccccc3n2)cc1)c1cc(-c2nnn[nH]2)ccc1O` [Example 19, 2'-Hydroxy-4-[(2-quinolyl)-methoxy]-5'-(5-tetrazolyl)-chalcone], in assay [1], the IC50 was determined as 67 nM. `CCOCCn1c(COc2ccc(C=CC(=O)c3cc(-c4nn[nH]n4)ccc3O)cc2)nc2ccccc21` [Example 23]: the IC50 in assay [1] stood at 480 nM. For `O=C(/C=C/c1ccc(OCc2ccc3ccccc3c2)cc1)c1cc(-c2nnn[nH]2)ccc1O` [Example 26, 2'-Hydroxy-4-(2-naphthyl-methoxy)-5'-(5-tetrazolyl)-chalcone], at Leukotriene D4 Receptor, the inhibition at 10 µM stood at 4%. Regarding `COc1ccc(C(=O)O)cc1C(=O)/C=C/c1ccc(OCc2ccc3ccccc3n2)cc1` [Example 29, 5'-Carboxy-2'-methoxy-4-[(2-quinolyl)methoxy]chalcone], the 50% inhibitory concentration (IC50) in assay [1] came out at 290 nM.

Turning to `CCCCOc1ccc(C(=O)O)cc1C(=O)C=Cc1ccc(OCc2ccc3ccccc3n2)cc1` [Example 32, 2'-n-Butoxy-5'-carboxy-4-(2-quinolylmethoxy)chalcone.HCl], at Leukotriene D4 Receptor, the inhibition at 10 µM is 41%. Take `N#Cc1cccc(C(=O)/C=C/c2ccc(OCc3ccc4ccccc4n3)cc2)c1` [Example 35, 3'-cyano-4-(2-quinolylmethoxy)-chalcone]: the inhibition at 10 µM on Leukotriene D4 Receptor stood at 8%. Same read-out and setting: the figure for `N#Cc1cccc(C(=O)/C=C/c2cccc(OCc3ccc4ccccc4n3)c2)c1` [Example 36, 3'-Cyano-3-(2-quinolylmethoxy)-chalcone] is 6%; for `CCOCCn1c(COc2cccc(C=CC(=O)c3ccc(C(=O)O)cc3O)c2)nc2ccccc21` [Example 37, 4'-Carboxy-3-[(1-ethoxyethyl-benzimidazol-2-yl)methoxy]-2'-hydroxychalcone.HCl] it is 26%.

As for `O=C(O)c1cccc(C(=O)/C=C/c2cccc(C=Cc3ccc4ccccc4n3)c2)c1O` [Example 40, 3'-carboxy-2'-hydroxy-3-[(2-quinolyl)-ethenyl]chalcone], in assay [1], the IC50 came out at 120 nM. In the case of `N#Cc1ccc(O)c(C(=O)/C=C/c2cccc(OCc3ccc4ccccc4n3)c2)c1` [Example 58, 5'-Cyano-2'-hydroxy-3-[(2-quinolyl)methoxy]chalcone], the inhibition at 10 µM on Leukotriene D4 Receptor stood at 38%.

As to `CCCCC/C=C\C\C=C/C=C/C=C/[C@@H](SC[C@H](NC(=O)CC[C@H](N)C(=O)O)C(=O)NCC(=O)O)[C@@H](O)CCCC(=O)O` [LTC4], the “effects on airway constriction relative to histamine” value in the assay with airway constriction (when inhaled, compared with histamine) was 1,000 times. For `CCCCC/C=C\C\C=C/C=C/C=C/[C@@H](SC[C@H](N)C(=O)O)[C@@H](O)CCCC(=O)O` [LTE4], in the assay on airway constriction (compared with that caused by the other leukotrienes), the “duration of airway constriction” value is “long lasting”. Besides, the “activity compared with the other leukotrienes” value in the assay on airway constriction (compared with the other leukotrienes) is reported as “lower activities”. With “[^3 H]leukotriene D4 [reference compound]”, the “slope of Hill plot” value on Leukotriene D4 Receptor ([^3 H]leukotriene D4 binding) was 0.99. Moreover, on Leukotriene D4 Receptor (read-out: dissociation constant (KD) of [^3 H]leukotriene D4, radioligand, guinea pig pulmomembranous protein), the dissociation constant Kd stood at 0.262 nM.
